Experimental data: publication PMC7770057 (Journal of medicinal chemistry, 2020)
Entries after “also recorded” stand apart in the source; their conditions may differ. Values belong to the molecule of their own block, whether it stands above or below them.

How the values were obtained:
HT-29 cells = test: Antiproliferation; conditions: for antiproliferation potency improvement over comparator: HT-29, 3 vs 14, 24 vs 3, 25 vs 22, 26 vs 3, 27 vs 23; for GI50: Homo sapiens, HT-29, 72 h, read-out: HT-29 GI50; for antiproliferation potency compared to compound 28: HT-29 cells
MEK1/2 = MEK1/2 protein levels in cells by Western blot; conditions: HT-29 cells, 0.3, 1 and 3 μM, 24 h
[1] = In vivo mouse PK study, single IP injection; design: species or system male Swiss Albino mice; conditions: mice, single IP 50 mg/kg; for tolerability: no clinical signs or adverse effects observed

Compound: Cc1ncsc1-c1ccc([C@H](C)NC(=O)[C@@H]2C[C@@H](O)CN2C(=O)[C@@H](NC(=O)CCCCCCCCCCNCCCONC(=O)c2ccc(F)c(F)c2Nc2ccc(I)cc2F)C(C)(C)C)cc1 [Compound 3]
antiproliferation potency improvement over comparator (HT-29 cells): 3 fold

Compound: Cc1ncsc1-c1ccc(CNC(=O)[C@@H]2C[C@@H](O)CN2C(=O)[C@@H](NC(=O)CCCCCCCNCCCONC(=O)c2ccc(F)c(F)c2Nc2ccc(I)cc2F)C(C)(C)C)cc1 [Compound 11, (2S,4R)-1-((S)-17-(tert-Butyl)-1-(3,4-difluoro-2-((2-fluoro-4-iodophenyl)amino)phenyl)-1,15-dioxo-3-oxa-2,7,16-triazaoctadecan-18-oyl)-4-hydroxy-N-(4-(4-methylthiazol-5-yl)benzyl)pyrrolidine-2-carboxamide]
MEK1/2 degradation (Western blot, words) (MEK1/2): effectively degraded MEK1 and MEK2 proteins

Compound: Cc1ncsc1-c1ccc(CNC(=O)[C@@H]2C[C@@H](O)CN2C(=O)[C@@H](NC(=O)CCCCCCCCCNCCCONC(=O)c2ccc(F)c(F)c2Nc2ccc(I)cc2F)C(C)(C)C)cc1 [Compound 13, (2S,4R)-1-((S)-19-(tert-Butyl)-1-(3,4-difluoro-2-((2-fluoro-4-iodophenyl)amino)phenyl)-1,17-dioxo-3-oxa-2,7,18-triazaicosan-20-oyl)-4-hydroxy-N-(4-(4-methylthiazol-5-yl)benzyl)pyrrolidine-2-carboxamide]
MEK1/2 degradation (Western blot, words) (MEK1/2): effectively degraded MEK1 and MEK2 proteins

Compound: Cc1ncsc1-c1ccc([C@H](C)NC(=O)[C@@H]2C[C@@H](O)CN2C(=O)[C@@H](NC(=O)CCCCCCCCCCN(C)CCCONC(=O)c2ccc(F)c(F)c2Nc2ccc(I)cc2F)C(C)(C)C)cc1 [Compound 24, (2S,4R)-1-((S)-20-(tert-Butyl)-1-(3,4-difluoro-2-((2-fluoro-4-iodophenyl)amino)phenyl)-7-methyl-1,18-dioxo-3-oxa-2,7,19-triazahenicosan-21-oyl)-4-hydroxy-N-((S)-1-(4-(4-methylthiazol-5-yl)phenyl)ethyl)pyrrolidine-2-carboxamide]
tolerability [1]: very well tolerated

Compound: Cc1ncsc1-c1ccc([C@H](C)NC(=O)[C@@H]2C[C@@H](O)CN2C(=O)[C@@H](NC(=O)CCCCCCCCCNCCCCONC(=O)c2ccc(F)c(F)c2Nc2ccc(I)cc2F)C(C)(C)C)cc1 [Compound 25, (2S,4R)-1-((S)-20-(tert-Butyl)-1-(3,4-difluoro-2-((2-fluoro-4-iodophenyl)amino)phenyl)-1,18-dioxo-3-oxa-2,8,19-triazahenicosan-21-oyl)-4-hydroxy-N-((S)-1-(4-(4-methylthiazol-5-yl)phenyl)ethyl)pyrrolidine-2-carboxamide]
antiproliferation potency improvement over comparator (HT-29 cells): about 4 fold

Compound: Cc1ncsc1-c1ccc([C@H](C)NC(=O)[C@@H]2C[C@@H](O)CN2C(=O)[C@@H](NC(=O)CCCCCCCCCCNCCCCONC(=O)c2ccc(F)c(F)c2Nc2ccc(I)cc2F)C(C)(C)C)cc1 [Compound 26, (2S,4R)-1-((S)-21-(tert-Butyl)-1-(3,4-difluoro-2-((2-fluoro-4-iodophenyl)amino)phenyl)-1,19-dioxo-3-oxa-2,8,20-triazadocosan-22-oyl)-4-hydroxy-N-((S)-1-(4-(4-methylthiazol-5-yl)phenyl)ethyl)pyrrolidine-2-carboxamide]
antiproliferation potency improvement over comparator (HT-29 cells): ~3 fold

Compound: Cc1ncsc1-c1ccc([C@H](C)NC(=O)[C@@H]2C[C@@H](O)CN2C(=O)[C@@H](NC(=O)CCCCCCCCCCCNCCCCONC(=O)c2ccc(F)c(F)c2Nc2ccc(I)cc2F)C(C)(C)C)cc1 [Compound 27, (2S,4R)-1-((S)-22-(tert-Butyl)-1-(3,4-difluoro-2-((2-fluoro-4-iodophenyl)amino)phenyl)-1,20-dioxo-3-oxa-2,8,21-triazatricosan-23-oyl)-4-hydroxy-N-((S)-1-(4-(4-methylthiazol-5-yl)phenyl)ethyl)pyrrolidine-2-carboxamide]
clearance comparison [1]: cleared more slowly than compound 24
plasma exposure comparison ([1]; 8 h period, 50 mg/kg): better plasma exposure than compound 24; also recorded: higher than that of the previously published MEK degrader 3
tolerability [1]: very well tolerated

GI50 (HT-29 cells): 300 to 500 nM
Compound: O=C1CCC(N2C(=O)c3cccc(NCCNCCCONC(=O)c4ccc(F)c(F)c4Nc4ccc(I)cc4F)c3C2=O)C(=O)N1 (centres unmarked) [Compound 28, N-(3-((2-((2-(2,6-Dioxopiperidin-3-yl)-1,3-dioxoisoindolin-4-yl)-amino)ethyl)amino)propoxy)-3,4-difluoro-2-((2-fluoro-4-iodophenyl)amino)benzamide]
MEK1/2 degradation (Western blot, words) (MEK1/2): did not show obvious MEK1/2 degradation

Compound: O=C1CCC(N2C(=O)c3cccc(NCCCNCCCONC(=O)c4ccc(F)c(F)c4Nc4ccc(I)cc4F)c3C2=O)C(=O)N1 (centres unmarked) [Compound 29, N-(3-((3-((2-(2,6-Dioxopiperidin-3-yl)-1,3-dioxoisoindolin-4-yl)-amino)propyl)amino)propoxy)-3,4-difluoro-2-((2-fluoro-4-iodophenyl)amino)benzamide]
antiproliferation potency compared to compound 28 (HT-29 cells): did not improve the antiproliferation potency

Compound: O=C1CCC(N2C(=O)c3cccc(NCCCCNCCCONC(=O)c4ccc(F)c(F)c4Nc4ccc(I)cc4F)c3C2=O)C(=O)N1 (centres unmarked) [Compound 30, N-(3-((4-((2-(2,6-Dioxopiperidin-3-yl)-1,3-dioxoisoindolin-4-yl)-amino)butyl)amino)propoxy)-3,4-difluoro-2-((2-fluoro-4-iodophenyl)amino)benzamide]
antiproliferation potency compared to compound 28 (HT-29 cells): did not improve the antiproliferation potency

Compound: O=C1CCC(N2C(=O)c3cccc(NCCCCCNCCCONC(=O)c4ccc(F)c(F)c4Nc4ccc(I)cc4F)c3C2=O)C(=O)N1 (centres unmarked) [Compound 31, N-(3-((5-((2-(2,6-Dioxopiperidin-3-yl)-1,3-dioxoisoindolin-4-yl)-amino)pentyl)amino)propoxy)-3,4-difluoro-2-((2-fluoro-4-iodophenyl)amino)benzamide]
antiproliferation potency compared to compound 28 (HT-29 cells): did not improve the antiproliferation potency

Compound: O=C1CCC(N2C(=O)c3cccc(NCCCCCCNCCCONC(=O)c4ccc(F)c(F)c4Nc4ccc(I)cc4F)c3C2=O)C(=O)N1 (centres unmarked) [Compound 32, N-(3-((6-((2-(2,6-Dioxopiperidin-3-yl)-1,3-dioxoisoindolin-4-yl)-amino)hexyl)amino)propoxy)-3,4-difluoro-2-((2-fluoro-4-iodophenyl)amino)benzamide]
antiproliferation potency compared to compound 28 (HT-29 cells): did not improve the antiproliferation potency

Compound: O=C1CCC(N2C(=O)c3cccc(NCCCCCCCNCCCONC(=O)c4ccc(F)c(F)c4Nc4ccc(I)cc4F)c3C2=O)C(=O)N1 (centres unmarked) [Compound 33, N-(3-((7-((2-(2,6-Dioxopiperidin-3-yl)-1,3-dioxoisoindolin-4-yl)-amino)heptyl)amino)propoxy)-3,4-difluoro-2-((2-fluoro-4-iodophenyl)amino)benzamide]
antiproliferation potency compared to compound 28 (HT-29 cells): did not improve the antiproliferation potency

Compound: O=C1CCC(N2C(=O)c3cccc(NCCCCCCCCNCCCONC(=O)c4ccc(F)c(F)c4Nc4ccc(I)cc4F)c3C2=O)C(=O)N1 (centres unmarked) [Compound 34, N-(3-((8-((2-(2,6-Dioxopiperidin-3-yl)-1,3-dioxoisoindolin-4-yl)-amino)octyl)amino)propoxy)-3,4-difluoro-2-((2-fluoro-4-iodophenyl)amino)benzamide]
antiproliferation potency compared to compound 28 (HT-29 cells): did not improve the antiproliferation potency

GI50 (HT-29 cells): 300 to 500 nM
Compound: O=C1CCC(N2C(=O)c3ccc(NCCCNCCCONC(=O)c4ccc(F)c(F)c4Nc4ccc(I)cc4F)cc3C2=O)C(=O)N1 (centres unmarked) [Compound 40, N-(3-((3-((2-(2,6-Dioxopiperidin-3-yl)-1,3-dioxoisoindolin-5-yl)amino)propyl)amino)propoxy)-3,4-difluoro-2-((2-fluoro-4-iodophenyl)amino)benzamide]
MEK1/2 degradation (Western blot, words) (MEK1/2): did not show obvious MEK1/2 degradation

GI50 (HT-29 cells): 300 to 500 nM
Compound: O=C1CCC(N2C(=O)c3ccc(NCCCCCNCCCONC(=O)c4ccc(F)c(F)c4Nc4ccc(I)cc4F)cc3C2=O)C(=O)N1 (centres unmarked) [Compound 42, N-(3-((5-((2-(2,6-Dioxopiperidin-3-yl)-1,3-dioxoisoindolin-5-yl)amino)pentyl)amino)propoxy)-3,4-difluoro-2-((2-fluoro-4-iodophenyl)amino)benzamide]
MEK1/2 degradation (Western blot, words) (MEK1/2): significant selectivity at degrading MEK2 over MEK1

GI50 (HT-29 cells): 300 to 500 nM
Compound: O=C1CCC(N2C(=O)c3ccc(NCCCCCCCNCCCONC(=O)c4ccc(F)c(F)c4Nc4ccc(I)cc4F)cc3C2=O)C(=O)N1 (centres unmarked) [Compound 44, N-(3-((7-((2-(2,6-Dioxopiperidin-3-yl)-1,3-dioxoisoindolin-5-yl)amino)heptyl)amino)propoxy)-3,4-difluoro-2-((2-fluoro-4-iodophenyl)amino)benzamide]
MEK1/2 degradation (Western blot, words) (MEK1/2): significantly degraded both MEK1 and MEK2 proteins

Compound: O=C1CCC(N2C(=O)c3ccc(NCCCCCCCCNCCCONC(=O)c4ccc(F)c(F)c4Nc4ccc(I)cc4F)cc3C2=O)C(=O)N1 (centres unmarked) [Compound 45, N-(3-((8-((2-(2,6-Dioxopiperidin-3-yl)-1,3-dioxoisoindolin-5-yl)amino)octyl)amino)propoxy)-3,4-difluoro-2-((2-fluoro-4-iodophenyl)amino)benzamide]
MEK1/2 degradation (Western blot, words) (MEK1/2): significantly degraded both MEK1 and MEK2 proteins

GI50 (HT-29 cells): 300 to 500 nM
Compound: O=C1CCC(N2C(=O)c3ccc(NCCOCCOCCOCCOCCNCCCONC(=O)c4ccc(F)c(F)c4Nc4ccc(I)cc4F)cc3C2=O)C(=O)N1 (centres unmarked) [Compound 49, N-((1-((2-(2,6-Dioxopiperidin-3-yl)-1,3-dioxoisoindolin-5-yl)amino)-3,6,9,12-tetraoxa-15-azaoctadecan-18-yl)oxy)-3,4-di-fluoro-2-((2-fluoro-4-iodophenyl)amino)benzamide]
MEK1/2 degradation (Western blot, words) (MEK1/2): significantly degraded both MEK1 and MEK2 proteins
